Measured values reported in the supplement of paper PMC10307832.

Legend:
Experiment in all cases: relative viability (nuclei count vs DMSO), 5 days (fraction); higher = more cells survive
Adavosertib + Pictilisib = compound: C=CCn1c(=O)c2cnc(Nc3ccc(N4CCN(C)CC4)cc3)nc2n1-c1cccc(C(C)(C)O)n1 [Adavosertib] + CS(=O)(=O)N1CCN(Cc2cc3nc(-c4cccc5[nH]ncc45)nc(N4CCOCC4)c3s2)CC1 [Pictilisib] (partner 1 µM)
In short: (§1)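 Nuclei were stained with Hoechst during a one-step fixation (final 0.05% Triton X-100, 1% formaldehyde, 1 ug/ml Hoechst) carried out 5 days after dosing, then counted on 4× images. The cells, lung cancer lines in 1536-well plates, had been dosed by pin tool the day after seeding with one drug alone or a fixed anchor-drug dose plus five library-drug doses (not always all listed) in √10 steps. Relative viability is the nuclei count in treated wells divided by that in vehicle wells, and each value is the median of duplicate plates.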

Adavosertib + Bortezomib = compound: C=CCn1c(=O)c2cnc(Nc3ccc(N4CCN(C)CC4)cc3)nc2n1-c1cccc(C(C)(C)O)n1 [Adavosertib] + CC(C)C[C@H](NC(=O)[C@H](Cc1ccccc1)NC(=O)c1cnccn1)B(O)O [Bortezomib] (partner 0.002 µM)
In short: as §1

Nelarabine + Dasatinib = compound: COc1nc(N)nc2c1ncn2[C@@H]1O[C@H](CO)[C@@H](O)[C@@H]1O [Nelarabine] + Cc1nc(Nc2ncc(C(=O)Nc3c(C)cccc3Cl)s2)cc(N2CCN(CCO)CC2)n1 [Dasatinib] (partner 0.075 µM)
In short: as §1

Adavosertib + Olaparib = compound: C=CCn1c(=O)c2cnc(Nc3ccc(N4CCN(C)CC4)cc3)nc2n1-c1cccc(C(C)(C)O)n1 [Adavosertib] + O=C(c1cc(Cc2n[nH]c(=O)c3ccccc23)ccc1F)N1CCN(C(=O)C2CC2)CC1 [Olaparib] (partner 8 µM)
In short: as §1

Row | Cell Line | relative viability (Adavosertib + Pictilisib; first compound 0.01 µM) | relative viability (Adavosertib + Pictilisib; first compound 0.03162 µM) | relative viability (Adavosertib + Pictilisib; first compound 0.1 µM) | relative viability (Adavosertib + Pictilisib; first compound 0.3162 µM) | relative viability (Adavosertib + Bortezomib; first compound 0.01 µM) | relative viability (Adavosertib + Bortezomib; first compound 0.03162 µM) | relative viability (Adavosertib + Bortezomib; first compound 0.1 µM) | relative viability (Adavosertib + Bortezomib; first compound 0.3162 µM) | relative viability (Nelarabine + Dasatinib; first compound 0.01 µM) | relative viability (Nelarabine + Dasatinib; first compound 0.03162 µM) | relative viability (Nelarabine + Dasatinib; first compound 0.1 µM) | relative viability (Nelarabine + Dasatinib; first compound 0.3162 µM) | relative viability (Nelarabine + Dasatinib; first compound 1 µM) | relative viability (Adavosertib + Olaparib; first compound 0.01 µM) | relative viability (Adavosertib + Olaparib; first compound 0.03162 µM) | relative viability (Adavosertib + Olaparib; first compound 0.1 µM) | relative viability (Adavosertib + Olaparib; first compound 0.3162 µM)
1 | NCI-H1651 | 0.497 | 0.491 | 0.565 | 0.42 | 0.902 | 0.963 | 1 | 0.935 | 0.4 | 0.372 | 0.387 | 0.355 | 0.368 | 0.17 | 0.218 | 0.139 | 0.16
2 | NCI-H1666 | 0.5 | 0.324 | 0.309 | 0.403 | 0.831 | 0.87 | 0.729 | 0.62 | 0.835 | 0.855 | 0.719 | 0.878 | 0.934 | 0.774 | 0.754 | 0.745 | 0.738
3 | NCI-H1734 | 0.41 | 0.434 | 0.478 | 0.31 | 1.01 | 1.01 | 1.02 | 0.696 | 0.559 | 0.411 | 0.418 | 0.527 | 0.532 | 0.584 | 0.613 | 0.562 | 0.352
4 | NCI-H1755 | 0.433 | 0.451 | 0.4 | 0.326 | 0.965 | 0.905 | 1.01 | 1.03 | 0.457 | 0.349 | 0.135 | 0.506 | 0.479 | 0.87 | 0.936 | 0.891 | 0.72
5 | NCI-H1792 | 0.294 | 0.224 | 0.233 | 0.272 | 0.974 | 0.918 | 0.972 | 0.968 | – | 0.876 | 0.627 | 0.95 | 0.846 | 0.464 | 0.461 | 0.378 | 0.459
6 | NCI-H1915 | 0.97 | 1 | 1.05 | 0.985 | 0.93 | 0.967 | 0.987 | 0.972 | 0.337 | 0.36 | 0.281 | 0.296 | 0.364 | 0.258 | 0.277 | 0.264 | 0.269
7 | NCI-H1975 | 0.267 | 0.279 | 0.261 | 0.19 | 0.356 | 0.353 | 0.399 | 0.324 | 0.431 | 0.343 | 0.316 | 0.434 | 0.462 | 0.873 | 0.803 | 0.737 | 0.63
8 | NCI-H1993 | 0.858 | 0.818 | 0.932 | 0.719 | 0.94 | 0.962 | 1.09 | 1.11 | 0.692 | 0.505 | 0.553 | 0.665 | 0.635 | 0.97 | 1.01 | 0.988 | 1.26
9 | NCI-H2009 | 0.766 | 0.847 | 0.68 | 0.395 | 1.09 | 1.05 | 1.04 | 1.02 | 0.348 | 0.288 | 0.2 | 0.307 | 0.315 | 0.686 | 0.739 | 0.802 | 0.777
10 | NCI-H2023 | 0.251 | 0.21 | 0.197 | 0.143 | 0.94 | 0.937 | 0.682 | 0.437 | 0.825 | 0.59 | 0.382 | 0.62 | 0.66 | 0.496 | 0.432 | 0.338 | 0.168
11 | NCI-H2085 | 0.491 | 0.451 | 0.41 | 0.519 | 1.04 | 1.05 | 1.05 | 1.11 | 0.231 | 0.26 | 0.177 | 0.192 | 0.199 | 0.831 | 0.753 | 0.829 | 0.759
12 | NCI-H2087 | 0.86 | 0.947 | 0.833 | 0.923 | 0.883 | 0.894 | 1.05 | 0.918 | 1.14 | 0.718 | 0.526 | 0.981 | 1.09 | 0.663 | 0.595 | 0.606 | 0.604
13 | NCI-H2126 | 0.531 | 0.526 | 0.506 | 0.521 | 1.12 | 1.17 | 1.11 | 1.15 | 0.701 | 0.55 | 0.43 | 0.692 | 0.639 | 0.909 | 0.939 | 0.915 | 0.919
14 | NCI-H2228 | 0.695 | 0.45 | 0.448 | 0.305 | 0.875 | 0.941 | 0.818 | 0.358 | 0.725 | 0.481 | – | 0.629 | 0.559 | – | 0.749 | 0.519 | 0.27
15 | NCI-H2347 | 0.567 | 0.61 | 0.297 | 0.762 | 0.763 | 0.911 | 0.875 | 0.763 | 0.328 | 0.306 | 0.252 | 0.289 | 0.308 | 0.584 | 0.595 | 0.548 | 0.54
16 | NCI-H2405 | 0.466 | 0.412 | 0.437 | 0.373 | 0.984 | 1.01 | 1.01 | 1.07 | 0.208 | 0.244 | 0.233 | 0.21 | 0.229 | – | 0.865 | 0.907 | 0.898
17 | NCI-H3122 | 0.584 | 0.606 | 0.72 | 0.613 | 1.12 | 0.992 | 1.11 | 1.09 | 1.08 | 0.661 | – | 0.81 | 0.948 | 0.662 | 0.611 | 0.549 | 0.575
18 | PC-3 [JPC-3] | 0.719 | 0.775 | 0.725 | 0.865 | 0.808 | 0.812 | 0.853 | 0.793 | 1.03 | 1.01 | 0.938 | 1.04 | 0.97 | – | 1.09 | 1.2 | 1.14
19 | PC-14 | 0.72 | 0.64 | 0.569 | 0.272 | 1.05 | 0.873 | 0.926 | 0.334 | 0.253 | 0.233 | 0.131 | 0.304 | 0.315 | 0.44 | 0.211 | 0.176 | 0.0727
